Assay results published in patent publication US9474279B2, “Methods of controlling insects” (Syngenta Participations AG, priority 2012, dated 2016).

Legend:
Assay type in all cases: in vivo
[1] = test system: Nilaparvata lugens (Brown Plant Hopper); test: Nilaparvata lugens (Brown Plant Hopper) rice seedling spray test, mortality; details: N3 nymphs, mortality 6-12 days after treatment
Method: Nilaparvata lugens (Brown Plant Hopper) Rice seedlings are treated with the diluted test solutions in a spray chamber. After drying, plants are infested with 20 N3 nymphs (2 replicates). 6-12 days after the treatment samples are checked for mortality

[2] = test system: Chilo suppressalis (Rice Stem Borer); test: Chilo suppressalis (Rice Stem Borer) treated rice leaf petri dish test, mortality; details: L2 larvae, mortality 5 days after treatment
Method: Chilo suppressalis (Rice Stem Borer) Rice seedlings are treated and after drying the leaves are cut and transferred into a petri dish coated with wet filter paper. 10 larvae (L2) are added and the dish is covered with a filter tissue and a plastic lid. 5 days after treatment the percentage mortality is assessed (3 replicates per concentration).

[3] = test system: Nephotettix virescens (Green Leafhopper); test: Nephotettix virescens (Green Leafhopper) rice seedling spray test, mortality; details: N5 nymphs, mortality 5 days after treatment
Method: […] Nephotettix virescens (Green Leafhopper) Rice seedlings are treated with the diluted test solutions in a spray chamber. After drying, plants are infested with 10 N5 nymphs (3 replicates). 5 days after the treatment samples are checked for mortality.

`Cc1cc(C2=NOC(c3cc(Cl)cc(Cl)c3)(C(F)(F)F)C2)ccc1C(=O)NC1CON(C)C1=O` (mixture of isomers) [Compound A1] showed a Control/% ([1]; rate 12.5 ppm) of 93%, a Control/% ([1]; rate 25 ppm) of 93% and a Control/% ([1]; rate 50 ppm) of 98%.
`Cc1cc(C2=NOC(c3cc(Cl)cc(Cl)c3)(C(F)(F)F)C2)ccc1C(=O)NC1CON(CC(F)(F)F)C1=O` (mixture of isomers) [Compound A2] gave a Control/% ([1]; rate 12.5 ppm) of 80%, a Control/% ([1]; rate 25 ppm) of 98% and a Control/% ([1]; rate 50 ppm) of 99%.
`CCN1OCC(NC(=O)c2ccc(C3=NOC(c4cc(Cl)cc(Cl)c4)(C(F)(F)F)C3)cc2C)C1=O` (mixture of isomers) [Compound A4] gave a Control/% ([1]; rate 12.5 ppm) of 88%, a Control/% ([1]; rate 25 ppm) of 93% and a Control/% ([1]; rate 50 ppm) of 100%.
`Cc1cc(C2=NOC(c3cc(Cl)cc(Cl)c3)(C(F)(F)F)C2)ccc1C(=O)NC1CON(C)C1=O` (mixture of isomers) [Compound A5] gave a Control/% ([1]; rate 12.5 ppm) of 0%, a Control/% ([1]; rate 25 ppm) of 65% and a Control/% ([1]; rate 50 ppm) of 98%.
For `CCN1OCC(NC(=O)c2ccc(C3=NOC(c4cc(Cl)c(Cl)c(Cl)c4)(C(F)(F)F)C3)cc2C)C1=O` (mixture of isomers) [Compound A6], the Control/% ([1]; rate 12.5 ppm) was 100%, the Control/% ([1]; rate 25 ppm) was 100% and the Control/% ([1]; rate 50 ppm) was 100%.
In the case of `CCN1OCC(NC(=O)c2ccc(C3=NOC(c4cc(Cl)c(Br)c(Cl)c4)(C(F)(F)F)C3)cc2C)C1=O` (mixture of isomers) [Compound A7], the Control/% ([1]; rate 12.5 ppm) was 100%, the Control/% ([1]; rate 25 ppm) was 100% and the Control/% ([1]; rate 50 ppm) was 100%.
In the case of `CCN1OCC(NC(=O)c2ccc(C3=NOC(c4cc(Cl)c(F)c(Cl)c4)(C(F)(F)F)C3)cc2C)C1=O` (mixture of isomers) [Compound A8], the Control/% ([1]; rate 12.5 ppm) was 100%, the Control/% ([1]; rate 25 ppm) was 100% and the Control/% ([1]; rate 50 ppm) was 100%.
`CCN1OCC(NC(=O)c2ccc(C3=NOC(c4cc(C(F)(F)F)c(Cl)c(C(F)(F)F)c4)(C(F)(F)F)C3)cc2C)C1=O` (mixture of isomers) [Compound A10] showed a Control/% ([1]; rate 12.5 ppm) of 100%, a Control/% ([1]; rate 25 ppm) of 100% and a Control/% ([1]; rate 50 ppm) of 100%.
`CCN1OCC(NC(=O)c2ccc(C3=NOC(c4cc(F)cc(Cl)c4)(C(F)(F)F)C3)cc2C)C1=O` (mixture of isomers) [Compound A11] showed a Control/% ([1]; rate 12.5 ppm) of 80%, a Control/% ([1]; rate 25 ppm) of 55% and a Control/% ([1]; rate 50 ppm) of 100%.
With `CCN1OCC(NC(=O)c2ccc(C3=NOC(c4cc(Cl)cc(Cl)c4)(C(F)(F)F)C3)cc2C)C1=O` (mixture of isomers) [Compound A18] the Control/% ([1]; rate 12.5 ppm) was 100%, the Control/% ([1]; rate 25 ppm) was 100% and the Control/% ([1]; rate 50 ppm) was 100%.
`Cc1cc(C2=NOC(c3cc(Cl)cc(Cl)c3)(C(F)(F)F)C2)ccc1C(=O)NC1CON(CC(F)(F)F)C1=O` (mixture of isomers) [Compound A19] gave a Control/% ([1]; rate 12.5 ppm) of 100%, a Control/% ([1]; rate 25 ppm) of 100% and a Control/% ([1]; rate 50 ppm) of 100%.
In the case of `Cc1cc(C2=NOC(c3cc(Cl)cc(Cl)c3)(C(F)(F)F)C2)ccc1C(=O)NC1CON(CC(F)F)C1=O` (mixture of isomers) [Compound A20], the Control/% ([1]; rate 12.5 ppm) was 100%, the Control/% ([1]; rate 25 ppm) was 100% and the Control/% ([1]; rate 50 ppm) was 100%.
For `CCN1OCC(NC(=O)c2ccc(C3=NOC(c4cc(Cl)c(F)c(Cl)c4)(C(F)(F)F)C3)cc2C)C1=O` (mixture of isomers) [Compound A21], the Control/% ([1]; rate 50 ppm) was 100%.
`Cc1cc(C2=NOC(c3cc(Cl)cc(Cl)c3)(C(F)(F)F)C2)ccc1C(=O)NC1CON(C)C1=O` (mixture of isomers) [Compound A22] showed a Control/% ([1]; rate 12.5 ppm) of 98%, a Control/% ([1]; rate 25 ppm) of 100% and a Control/% ([1]; rate 50 ppm) of 100%.
`Cc1cc(C2=NOC(c3cc(Cl)c(Cl)c(Cl)c3)(C(F)(F)F)C2)ccc1C(=O)NC1CON(CC(F)(F)F)C1=O` (mixture of isomers) [Compound A23] showed a Control/% ([1]; rate 12.5 ppm) of 90%, a Control/% ([1]; rate 25 ppm) of 98% and a Control/% ([1]; rate 50 ppm) of 100%.
For `CCN1OCC(NC(=O)c2ccc(C3=NCC(c4cc(Cl)cc(Cl)c4)(C(F)(F)F)C3)cc2C)C1=O` (mixture of isomers) [Compound B1], the Control/% ([1]; rate 12.5 ppm) was 0%, the Control/% ([1]; rate 25 ppm) was 78% and the Control/% ([1]; rate 50 ppm) was 90%.
`CCN1OCC(NC(=O)c2ccc(C3=COC(c4cc(Cl)cc(Cl)c4)(C(F)(F)F)C3)cc2C)C1=O` (mixture of isomers) [Compound C1] gave a Control/% ([1]; rate 12.5 ppm) of 0%, a Control/% ([1]; rate 25 ppm) of 15% and a Control/% ([1]; rate 50 ppm) of 95%.
`CCN1OC[C@@H](NC(=O)c2ccc(C3=NO[C@@](c4cc(Cl)cc(Cl)c4)(C(F)(F)F)C3)cc2C)C1=O` [Compound A3] was tested, and the Control/% ([2]; application rate 0.05 ppm) was 97%, the Control/% ([2]; application rate 0.2 ppm) was 100% and the Control/% ([2]; application rate 0.8 ppm) was 100%. For the same molecule, the Control/% ([3]; application rate 3 ppm) was 90%, the Control/% ([3]; application rate 12 ppm) was 100% and the Control/% ([3]; application rate 50 ppm) was 100%. The Control/% ([3]; application rate 200 ppm) was 100%, the Control/% ([1]; rate 12.5 ppm) was 100% and the Control/% ([1]; rate 25 ppm) was 100%. It also gave a Control/% ([1]; rate 50 ppm) of 100%.
`Cc1cc(C2=NO[C@@](c3cc(Cl)cc(Cl)c3)(C(F)(F)F)C2)ccc1C(=O)N[C@@H]1CON(CC(F)(F)F)C1=O` [Compound A9] showed a Control/% ([2]; application rate 0.05 ppm) of 43%, a Control/% ([2]; application rate 0.2 ppm) of 100% and a Control/% ([2]; application rate 0.8 ppm) of 100%. The Control/% ([3]; application rate 3 ppm) was 100%, the Control/% ([3]; application rate 12 ppm) was 100% and the Control/% ([3]; application rate 50 ppm) was 100%. The Control/% ([3]; application rate 200 ppm) was 100%, the Control/% ([1]; rate 12.5 ppm) was 98% and the Control/% ([1]; rate 25 ppm) was 100%. The Control/% ([1]; rate 50 ppm) was 100%.
Molecule `Cc1cc(C2=NO[C@@](c3cc(Cl)cc(Cl)c3)(C(F)(F)F)C2)ccc1C(=O)N[C@@H]1CON(CC(F)F)C1=O` [Compound A12] has a Control/% ([1]; rate 12.5 ppm) of 100%, a Control/% ([1]; rate 25 ppm) of 100% and a Control/% ([1]; rate 50 ppm) of 100%.
With `Cc1cc(C2=NO[C@@](c3cc(Cl)c(Cl)c(Cl)c3)(C(F)(F)F)C2)ccc1C(=O)N[C@@H]1CON(CC(F)(F)F)C1=O` [Compound A13] the Control/% ([1]; rate 12.5 ppm) was 75%, the Control/% ([1]; rate 25 ppm) was 100% and the Control/% ([1]; rate 50 ppm) was 98%.
`Cc1cc(C2=NO[C@@](c3cc(Cl)c(F)c(Cl)c3)(C(F)(F)F)C2)ccc1C(=O)N[C@@H]1CON(CC(F)(F)F)C1=O` [Compound A14] gave a Control/% ([1]; rate 12.5 ppm) of 100%, a Control/% ([1]; rate 25 ppm) of 100% and a Control/% ([1]; rate 50 ppm) of 100%.
Work on `CCN1OC[C@@H](NC(=O)c2ccc(C3=NO[C@@](c4cc(Cl)cc(C(F)(F)F)c4)(C(F)(F)F)C3)cc2C)C1=O` [Compound A15] yielded a Control/% ([1]; rate 12.5 ppm) of 99%, a Control/% ([1]; rate 25 ppm) of 99% and a Control/% ([1]; rate 50 ppm) of 100%.
In the case of `CCN1OC[C@@H](NC(=O)c2ccc(C3=NO[C@@](c4cc(Cl)cc(Br)c4)(C(F)(F)F)C3)cc2C)C1=O` [Compound A16], the Control/% ([1]; rate 12.5 ppm) was 95%, the Control/% ([1]; rate 25 ppm) was 97% and the Control/% ([1]; rate 50 ppm) was 98%.
With `Cc1cc(C2=NO[C@@](c3cc(Cl)cc(Br)c3)(C(F)(F)F)C2)ccc1C(=O)N[C@@H]1CON(CC(F)(F)F)C1=O` [Compound A17] the Control/% ([1]; rate 12.5 ppm) was 100%, the Control/% ([1]; rate 25 ppm) was 100% and the Control/% ([1]; rate 50 ppm) was 100%.
Work on `CCN1OC[C@@H](NC(=O)c2ccc(C3=NO[C@@](c4cc(Cl)c(F)c(Cl)c4)(C(F)(F)F)C3)cc2C)C1=O` [Compound A24] yielded a Control/% ([1]; rate 12.5 ppm) of 75%, a Control/% ([1]; rate 25 ppm) of 85% and a Control/% ([1]; rate 50 ppm) of 98%.
`CCN1OC[C@@H](NC(=O)c2ccc(C3=NO[C@@](c4cc(Cl)c(F)c(Cl)c4)(C(F)(F)F)C3)cc2Cl)C1=O` [Compound A25] was tested, and the Control/% ([1]; rate 12.5 ppm) was 100%, the Control/% ([1]; rate 25 ppm) was 100% and the Control/% ([1]; rate 50 ppm) was 100%.
`CCN1OC[C@@H](NC(=O)c2ccc(C3=NO[C@@](c4cc(Cl)cc(C(F)(F)F)c4)(C(F)(F)F)C3)c3ccccc23)C1=O` [Compound A26] showed a Control/% ([1]; rate 12.5 ppm) of 83%, a Control/% ([1]; rate 25 ppm) of 100% and a Control/% ([1]; rate 50 ppm) of 100%.
With `CCN1OC[C@@H](NC(=O)c2ccc(C3=NO[C@@](c4cc(Cl)cc(Cl)c4)(C(F)(F)F)C3)cc2C(F)(F)F)C1=O` [Compound A28] the Control/% ([1]; rate 12.5 ppm) was 0%, the Control/% ([1]; rate 25 ppm) was 50% and the Control/% ([1]; rate 50 ppm) was 95%.
In the case of `CCN1OC[C@@H](NC(=O)c2ccc(C3=NO[C@@](c4cc(Cl)c(Cl)c(Cl)c4)(C(F)(F)F)C3)cc2C(F)(F)F)C1=O` [Compound A29], the Control/% ([1]; rate 12.5 ppm) was 55%, the Control/% ([1]; rate 25 ppm) was 88% and the Control/% ([1]; rate 50 ppm) was 100%.
`CCN1OC[C@@H](NC(=O)c2ccc(C3=NO[C@@](c4cccc(C(F)(F)F)c4)(C(F)(F)F)C3)cc2C)C1=O` [Compound A30] was tested, and the Control/% ([1]; rate 12.5 ppm) was 93%, the Control/% ([1]; rate 25 ppm) was 100% and the Control/% ([1]; rate 50 ppm) was 98%.
`CCN1OC[C@@H](NC(=O)c2ccc(C3=NO[C@@](c4cc(Cl)c(Cl)c(Cl)c4)(C(F)(F)F)C3)cc2Br)C1=O` [Compound A33] was tested, and the Control/% ([1]; rate 12.5 ppm) was 80%, the Control/% ([1]; rate 25 ppm) was 98% and the Control/% ([1]; rate 50 ppm) was 98%.
`CCN1OC[C@@H](NC(=O)c2ccc(C3=NO[C@@](c4cc(Cl)cc(Cl)c4)(C(F)(F)F)C3)cc2Br)C1=O` [Compound A34] was tested, and the Control/% ([1]; rate 12.5 ppm) was 98%, the Control/% ([1]; rate 25 ppm) was 100% and the Control/% ([1]; rate 50 ppm) was 100%.
In the case of `CCN1OC[C@@H](NC(=O)c2ccc(C3=NO[C@@](c4cc(Cl)c(Cl)c(Cl)c4)(C(F)(F)F)C3)cc2C)C1=O` [Compound A35], the Control/% ([1]; rate 12.5 ppm) was 93%, the Control/% ([1]; rate 25 ppm) was 100% and the Control/% ([1]; rate 50 ppm) was 98%.
`CCN1OCC(NC(=O)c2ccc(C3=NCC(c4cc(Cl)cc(Cl)c4)(C(F)(F)F)C3)cc2C)C1=O` (stereo not drawn) [Compound B2] gave a Control/% ([1]; rate 12.5 ppm) of 15%, a Control/% ([1]; rate 25 ppm) of 70% and a Control/% ([1]; rate 50 ppm) of 88%.
`Cc1cc(C2=NCC(c3cc(Cl)cc(Cl)c3)(C(F)(F)F)C2)ccc1C(=O)NC1CON(CC(F)(F)F)C1=O` (stereo not drawn) [Compound B3] gave a Control/% ([1]; rate 12.5 ppm) of 100%, a Control/% ([1]; rate 25 ppm) of 100% and a Control/% ([1]; rate 50 ppm) of 100%.
